Activity calls are given as the source filed them. The rule behind the calls is not given here.
Tests used:
[1] = system: Respiratory syncytial virus; experiment: Antiviral activity against Respiratory syncytial virus infected in human HEp-2 cells assessed as reduction in viral infection incubated for 60 hrs by MTT assay; format: functional, organism-based; settings: dose 3.125-50 µM
[2] = system: Respiratory syncytial virus; experiment: Antiviral activity against Respiratory syncytial virus infected in human HEp-2 cells assessed as inhibition of virus infected cells induced lesion formation at 25 uM measured after 60 hrs by microscopic analysis; format: functional, organism-based
[3] = system: Respiratory syncytial virus; experiment: Antiviral activity against Respiratory syncytial virus Long infected in human HEp-2 cells assessed as reduction in viral infection incubated for 60 hrs by MTT assay; format: functional, organism-based; settings: HEp-2, 60 h
[4] = system: Respiratory syncytial virus; experiment: Antiviral activity against Respiratory syncytial virus Long infected in human A549 cells assessed as reduction in viral infection incubated for 60 hrs by MTT assay; format: functional, organism-based; settings: A549, 60 h
Human orthopneumovirus [5] = experiment: Antiviral activity against Respiratory syncytial virus A2 infected in African green monkey Vero cells assessed as reduction in viral infection incubated for 60 hrs by MTT assay; format: functional, organism-based
Human orthopneumovirus [6] = experiment: Antiviral activity against Respiratory syncytial virus A2 infected in human HEp-2 cells assessed as reduction in viral infection up to 50 uM treated 2 hpi measured after 60 hrs by MTT assay; format: functional, organism-based; settings: dose microM <=50, time 60.0 hrs
[7] = system: Respiratory syncytial virus; experiment: Inhibition of RSV induced apoptosis in human HEp-2 cells assessed as early apoptotic cells at 50 uM measured after 60 hrs by Annexin V-FITC/PI staining based flow cytometry analysis (reference value: 10.3%); format: functional; parameters: scale not given: the % may be the effect or the level left
[8] = system: Respiratory syncytial virus; experiment: Inhibition of RSV induced apoptosis in human HEp-2 cells assessed as late apoptotic cells at 50 uM measured after 60 hrs by Annexin V-FITC/PI staining based flow cytometry analysis (reference value: 20.2%); format: functional; parameters: scale not given: the % may be the effect or the level left
HEp-2 [9] = experiment: Induction of apoptosis in human HEp-2 cells assessed as early apoptotic cells at 25 uM measured after 60 hrs by Annexin V-FITC/PI staining based flow cytometry analysis (reference value: 0.1%); format: functional
[10] = system: Respiratory syncytial virus; experiment: Inhibition of RSV induced apoptosis in human HEp-2 cells assessed as reduction in PARP cleavage measured after 48 hrs by Western blot analysis; format: functional, organism-based
HEp-2 [11] = experiment: Induction of ROS production in human HEp-2 cells assessed as accumulation of ROS-positive cells at 25 uM measured after 36 hrs by DCHF-DA staining based flow cytometry analysis (reference value: 48.2%); format: functional
[12] = system: Respiratory syncytial virus; experiment: Inhibition of RSV induced apoptosis in human HEp-2 cells assessed as reversal of virus induced increase in Bax/Bcl-2 ratio at 25 to 50 uM measured after 36 hrs by Western blot analysis; format: functional, organism-based; settings: dose 25-50 µM
[13] = system: Respiratory syncytial virus; experiment: Antiviral activity against RSV infected in human HEp-2 cells assessed as decrease in virus induced TLR-3 gene expression measured after 48 hrs by RT-PCR analysis; format: functional, organism-based
[14] = system: Respiratory syncytial virus; experiment: Antiviral activity against RSV infected in human HEp-2 cells assessed as decrease in virus induced IRF3 gene expression measured after 48 hrs by RT-PCR analysis; format: functional, organism-based
[15] = system: Respiratory syncytial virus; experiment: Antiviral activity against RSV infected in human HEp-2 cells assessed as decrease in virus induced NF-kappaB gene expression measured after 48 hrs by RT-PCR analysis; format: functional, organism-based
[16] = system: Respiratory syncytial virus; experiment: Antiviral activity against RSV infected in human HEp-2 cells assessed as decrease in virus induced IL-6 gene expression measured after 48 hrs by RT-PCR analysis; format: functional, organism-based
[17] = system: Respiratory syncytial virus; experiment: Antiviral activity against RSV Long infected in BALB/c mouse assessed as reversal of virus infection induced weight loss at 25 to 100 mg/kg/day administered via gastric gavage once daily for 6 days; format: functional, organism-based; settings: dose 25-100 mg/kg/day, time 6.0 day
[18] = system: Respiratory syncytial virus; experiment: Antiviral activity against RSV Long infected in BALB/c mouse assessed as reduction in lung tissue damage by measuring lung index at 25 to 100 mg/kg/day measured after 2 days of virus infection; format: functional, organism-based; settings: dose 25-100 mg/kg/day, time 2.0 day
[19] = system: Respiratory syncytial virus; experiment: Antiviral activity against RSV Long infected in BALB/c mouse assessed as improvement in lung congestion at 25 to 100 mg/kg/day observed on day 6 after infection by H and E staining based microscopic analysis; format: functional, organism-based; settings: dose 25-100 mg/kg/day, time 6.0 day
[20] = system: Respiratory syncytial virus; experiment: Antiviral activity against RSV infected in BALB/c mouse assessed as inhibition of viral replication by measuring RSV-M gene expression in lung after 2 to 6 days post infection by RT-PCR analysis; format: functional, organism-based; settings: time 2-6 day
[21] = system: Respiratory syncytial virus; experiment: Antiviral activity against RSV infected in BALB/c mouse assessed as downregulation of IRF3 expression in lung tissue infected with RSV at 25 to 100 mg/kg/day measured after 2 to 4 days post infection by RT-PCR analysis; format: functional, organism-based; settings: dose 25-100 mg/kg/day, time 2-4 day
[22] = system: Respiratory syncytial virus; experiment: Antiviral activity against RSV infected in BALB/c mouse assessed as downregulation of TLR3 expression in lung tissue infected with RSV at 25 to 100 mg/kg/day measured after 2 to 6 days post infection by RT-PCR analysis; format: functional, organism-based; settings: dose 25-100 mg/kg/day, time 2-6 day
[23] = system: Respiratory syncytial virus; experiment: Antiviral activity against RSV infected in BALB/c mouse assessed as downregulation of IL-6 expression in lung tissue infected with RSV at 25 to 100 mg/kg/day measured after 2 days post infection by RT-PCR analysis; format: functional, organism-based; settings: dose 25-100 mg/kg/day, time 2.0 day
[24] = system: Respiratory syncytial virus; experiment: Antiviral activity against RSV infected in BALB/c mouse assessed as downregulation of iNOS expression in lung tissue infected with RSV at 25 to 100 mg/kg/day measured after 2 to 6 days post infection by RT-PCR analysis; format: functional, organism-based; settings: dose 25-100 mg/kg/day, time 2-6 day

Question: Which Activity [1] does the source give for Cc1c(Br)cc2nc3n(c2c1Br)[C@H]1OC[C@@H](O)[C@H]1OC3 here?
Answer: Its Activity is “Dose-Dependent Effect”.

Question: And the Activity [2]?
Answer: The Activity was “Active”.

Question: And the EC50 [3]?
Answer: Its EC50 is 9.49 µM.

Question: And the EC50 [4]?
Answer: The EC50 was 13.3 µM.

Question: What about the EC50 (Human orthopneumovirus [5]) of the same compound?
Answer: The EC50 was 15.5 µM.

Question: What about the Activity (Human orthopneumovirus [6]) of the same compound?
Answer: The Activity was “Active”.

Question: What about the Activity [7] of the same compound?
Answer: The Activity was 3.9%.

Question: And the Activity [8]?
Answer: The Activity was 2.2%.

Question: What about the Activity (HEp-2 [9]) of the same compound?
Answer: The Activity was 0.4%.

Question: What about the inhibition [10] of the same compound?
Answer: The inhibition was “Active”.

Question: What about the Activity (HEp-2 [11]) of the same compound?
Answer: The Activity was 53.1%.

Question: What about the inhibition [12] of the same compound?
Answer: The inhibition was “Active”.

Question: And the Activity [13]?
Answer: Its Activity is “Dose-Dependent Effect”.

Question: And the Activity [14]?
Answer: Its Activity is “Dose-Dependent Effect”.

Question: And the Activity [15]?
Answer: Its Activity is “Dose-Dependent Effect”.

Question: And the Activity [16]?
Answer: Its Activity is “Dose-Dependent Effect”.

Question: And the Activity [17]?
Answer: The Activity was “Active”.

Question: What about the Activity [18] of the same compound?
Answer: Its Activity is “Active”.

Question: And the Activity [19]?
Answer: Its Activity is “Active”.

Question: And the Activity [20]?
Answer: Its Activity is “Dose-Dependent Effect”.

Question: What about the Activity [21] of the same compound?
Answer: Its Activity is “Active”.

Question: And the Activity [22]?
Answer: Its Activity is “Active”.

Question: And the Activity [23]?
Answer: Its Activity is “Active”.

Question: What about the Activity [24] of the same compound?
Answer: Its Activity is “Active”.
